Assay results as given in US20200237742A1, “Serdexmethylphenidate Conjugates, Compositions And Methods Of Use Thereof” (priority 2018, published 2020).
Structures can show the parent of a compound that is named as a salt.

Assays:
[1] = system: healthy, nondependent, recreational stimulant users; experiment: Oral abuse potential study, VAS pharmacodynamic assessments
[2] = system: recreational stimulant abusers; experiment: Intravenous abuse potential study, VAS pharmacodynamic assessments; assay type: in vivo, human
Text: “Drug liking” score, used herein, is the score used to assess the degree that a human participant likes a drug effect at the time the question is being asked (that is, at the moment). It is scored using a 0 to 100 point bipolar visual analogue scale (VAS) anchored in the center with a neutral anchor of “neither like nor dislike” (score of 50), on the left with “strong disliking” (score of 0) and on the right with “strong liking” (score of 100).
“Euphoria” or “Feeling High” score, used herein, is the term to describe the score used to assess the degree that a human participant is high at the time the question is being asked (that is, at the moment). It is scored using a 0 to 100 point unipolar visual analogue scale (VAS) anchored on the left with “Not at All” (score of 0) and on the right with “Extremely” (score of 100).
“Take Drug Again” score, used herein, is the term to describe the score used to assess the degree that a human participant wants to take the drug again, if given the opportunity, based on his/her opinion now, i.e., at the time the question is being asked. It is scored using a 0 to 100 point unipolar visual analogue scale (VAS) anchored on the left with “Definitely Would Not” (score of 0) and on the right with “Definitely Would” (score of 100).
“Overall Drug Liking” score, used herein, is the term to describe the score used to assess the human subject's global perception of drug liking (i.e., the subjective effects over the whole course of the drug experience including any carryover effects). Subjects respond to the statement “Overall, my liking for this drug is.” The question is scored using a 0-100 point bipolar VAS anchored on the left with “Strong Disliking” (score of 0); “Neither Like nor Dislike” (score of 50) in the middle, and anchored on the right with “Strong Liking” (score of 100). This scale has the advantage of the human subject being relatively less affected or unaffected by acute study drug effects (if any) by the time of the assessment.
“Good Effects” score, used herein, is the term to describe the score used to assess the degree that a human participant is feeling good drug effects at the time the question is being asked (that is, at the moment). Subjects respond to the statement “At this moment, I can feel good drug effects.” It is scored using a 0 to 100 point unipolar visual analogue scale (VAS) anchored on the left with “Not at All” (score of 0) and on the right with “Extremely” (score of 100).
Safety assessments were performed throughout the study.

[3] = system: recreational stimulant abusers; experiment: Intravenous study, treatment-emergent adverse events; details: d-methylphenidate treatment vs serdexmethylphenidate
Method: (§1) A study was conducted in humans to assess the intravenous abuse potential of serdexmethylphenidate relative to unconjugated d-methylphenidate and placebo in recreational stimulant abusers. This was a Phase 1, randomized, double-blind study in which serdexmethylphenidate and d-methylphenidate were administered intravenously in recreational stimulant users with a history of non-oral abuse. In Part A of the study, subjects (Cohort 1) participated in a dose-escalation phase to determine the optimal dose of intravenous d-methylphenidate based on tolerability and abuse-related pharmacodynamic assessments. […] The doses of serdexmethylphenidate and d-methylphenidate are equivalent with respect to molar amount of d-methylphenidate. FDA-recommended abuse potential measures and blood samples were collected at different times after dosing. Safety assessments were performed throughout the study.

[4] = Intravenous pharmacokinetic study (KP415.A03) in recreational stimulant users; details: following intravenous administration
Method: as §1

[5] = Intranasal study (KP415.A02), plasma pharmacokinetics; assay type: in vivo, human; details: intranasal administration
Method: On dosing days in the Treatment Phase, blood samples were collected for the measurement of the plasma concentrations of SDX, d-methylphenidate (d-MPH), 1-methylphenidate (1-MPH) and ritalinic acid at predose and at 0.25, 0.5, 0.75, 1, 1.5, 2, 3, 4, 5, 6, 7, 8, 9, 10, 12, 16, 24, 36, and 48 hours ±5 minutes after each dose of study drug. […] All VAS pharmacodynamic assessments except Take Drug Again and Overall Drug Liking were performed at 0.25, 0.5, 0.75, 1, 1.5, 2, 3, 4, 5, 6, 7, 8, 10, 12, 24 hours ±5 minutes postdose. In addition, predose assessments of Feeling High, and Drowsiness/Alertness were collected. The Take Drug Again and Overall Drug Liking VAS assessments were performed at 12 and 24 hours ±5 minutes postdose. Ease of Nasal Insufflation scores were completed within 5 minutes after the completion of each intranasal drug administration during the Treatment Phase.

[6] = Focalin XR 80 mg, phentermine HCl 60 mg, bipolar VAS
[7] = Focalin XR 80 mg, phentermine HCl 60 mg, unipolar VAS
[8] = phentermine HCl 60 mg vs SDX Cl 120 mg
[9] = phentermine HCl 60 mg vs SDX Cl 240 mg
[10] = phentermine HCl 60 mg vs placebo

CC(C)(N)Cc1ccccc1 [phentermine hydrochloride, reference compound]
Drug Liking Emax, Median [1, 6]: 84.0
Feeling Alert/Drowsy Emax, Median [1, 6]: 84.0
Overall Drug Liking Emax, Median [1, 6]: 77.0
Take Drug Again Emax, Median [1, 6]: 75.0
Any Effects Emax, Median [1, 7]: 74.0
Bad Effects Emax, Median [1, 7]: 7.0
Feeling High Emax, Median [1, 7]: 76.0
Good Effects Emax, Median [1, 7]: 75.0
Mean Difference Any Effects Emax, D vs A [1, 8]: 37.4
Mean Difference Bad Effects Emax, D vs A [1, 8]: 11.9
Mean Difference Feeling Alert/Drowsy Emax, D vs A [1, 8]: 15.7
Mean Difference Feeling High Emax, D vs A [1, 8]: 36.0
Mean Difference Good Effects Emax, D vs A [1, 8]: 35.5
Mean Difference Overall Drug Liking Emax, D vs A [1, 8]: 14.9
Mean Difference Take Drug Again Emax, D vs A [1, 8]: 14.9
Mean Difference Drug Liking Emax, D vs A ([1]; phentermine HCl 60 mg vs SDX Cl 120 mg, margin 10): 15.5
Mean Difference Any Effects Emax, D vs B [1, 9]: 28.0
Mean Difference Bad Effects Emax, D vs B [1, 9]: 4.6
Mean Difference Feeling Alert/Drowsy Emax, D vs B [1, 9]: 12.2
Mean Difference Feeling High Emax, D vs B [1, 9]: 27.7
Mean Difference Good Effects Emax, D vs B [1, 9]: 30.2
Mean Difference Overall Drug Liking Emax, D vs B [1, 9]: 15.3
Mean Difference Take Drug Again Emax, D vs B [1, 9]: 15.4
Mean Difference Drug Liking Emax, D vs B ([1]; phentermine HCl 60 mg vs SDX Cl 240 mg, margin 10): 14.0
Bad Effects Emax, median difference D vs E [1, 10]: 8.0c
Mean Difference Any Effects Emax, D vs E [1, 10]: 48.5
Mean Difference Feeling Alert/Drowsy Emax, D vs E [1, 10]: 23.5
Mean Difference Feeling High Emax, D vs E [1, 10]: 46.4
Mean Difference Good Effects Emax, D vs E [1, 10]: 47.6
Mean Difference Overall Drug Liking Emax, D vs E [1, 10]: 18.6
Mean Difference Take Drug Again Emax, D vs E [1, 10]: 17.1
Mean Difference Drug Liking Emax, D vs E ([1]; phentermine HCl 60 mg vs placebo, margin 10, hydrochloride): 22.3
Mean Difference Drug Liking Emax, D vs E ([1]; phentermine HCl 60 mg vs placebo, margin 10, listed as Phentermine, hydrochloride): statistically significantly higher

COC(=O)[C@H](c1ccccc1)[C@H]1CCCCN1 [d-methylphenidate, methyl (R)-2-phenyl-2-((R)-piperidin-2-yl)acetate, reference compound]
Drug Liking Emax, statistical analysis vs. placebo ([2]; d-MPH HCl 15 mg vs placebo (study validity)): significantly higher
Typical stimulant-related Adverse Events (euphoric mood, hypervigilance, increased heart rate) [3]: more common

COC(=O)[C@H](c1ccccc1)[C@H]1CCCCN1C(=O)OC[n+]1cccc(C(=O)N[C@@H](CO)C(=O)O)c1 [serdexmethylphenidate]
conversion of serdexmethylphenidate to d-methylphenidate [4]: very little conversion
Median Difference Drug Liking Emax, A vs C ([2]; SDX Cl 30 mg vs placebo, bipolar VAS): not significantly different
Median Difference Drug Liking Emax, B vs A ([2]; d-MPH HCl 15 mg vs SDX Cl 30 mg, bipolar VAS): significantly lower
effects on multiple abuse-related endpoints vs intravenous placebo ([2]; subjects with a history of non-oral abuse of stimulants): statistically similar
conversion of SDX to the active d-methylphenidate when snorted [5]: not readily or effectively converted
